Measured values: patent US10322110B2, “Imidazole-based antimicrobial agents” (priority 2014, dated 2019)
Converted amounts (≈) assume the structure as drawn.

Experiments:
Type in all cases: cell-based
[1] = test system: Streptococcus pneumoniae (Chester, ATCC49619); test: broth microdilution MIC assay, Streptococcus pneumoniae; settings: MIC100 class score, 24 h
[2] = test system: Staphylococcus aureus MRSA (COL); test: broth microdilution MIC assay, Staphylococcus aureus MRSA (COL); settings: 24 h; for Antibacterial activity Staphylococcus aureus (MRSA): MIC100 class score, broth microdilution; for MIC: Staphylococcus aureus, MRSA, read-out: Antibacterial activity Staphylococcus aureus (MRSA)
[3] = test system: Staphylococcus aureus MSSA (Newman); test: broth microdilution MIC assay, Staphylococcus aureus MSSA (Newman); settings: 24 h; for MIC: Staphylococcus aureus, read-out: Antibacterial activity Staphylococcus aureus (MSSA); for Antibacterial activity Staphylococcus aureus (MSSA): MIC100 class score, broth microdilution

Structure (SMILES)	Antibacterial activity Streptococcus pneumoniae [1]	MIC [3] [µg/mL]	MIC [2] [µg/mL]	further results
CCCc1nc(-c2ccc(-c3ccc(C(F)(F)F)cc3)o2)[nH]c1C [Compound 104]	3 (MIC100 of 2-5 μg/ml)			Antibacterial activity Staphylococcus aureus (MRSA) [2]: 3 (MIC100 of 3-10 μg/ml)
Cc1nc(-c2ccc(-c3ccc(F)cc3)o2)[nH]c1-c1ccccc1 [Compound 148]		3 to 10 (≈ 9.42 to 31.4 µM)	3 to 10 (≈ 9.42 to 31.4 µM)	
CCCc1nc(-c2csc(-c3ccccc3C(F)(F)F)c2)[nH]c1C [Compound 113]				Antibacterial activity Staphylococcus aureus (MRSA) [2]: 3 (MIC100 of 3-10 μg/ml)
Cc1[nH]c(-c2ccc(-c3ccccc3F)o2)nc1-c1ccc(O)cc1 [Compound 77]	3 (MIC100 of 2-5 μg/ml)			Antibacterial activity Staphylococcus aureus (MSSA) [3]: 3 (MIC100 of 3-10 μg/ml)
Cc1ccc(-c2ccc(-c3nc(-c4ccccc4)c(C)[nH]3)s2)cc1 [Compound 54]	2 (MIC100 of 6-10 μg/ml)			
Cc1nc(-c2ccc(-c3cc4ccccc4o3)o2)[nH]c1-c1ccccc1 [Compound 140]			11 to 201 (≈ 32.3 to 591 µM)	
Cc1[nH]c(-c2csc(-c3cccc(Br)c3)n2)nc1-c1ccccc1 [Compound 14]	3 (MIC100 of 2-5 μg/ml)			
Cc1nc(-c2ccc(-c3ccc4occc4c3)o2)[nH]c1-c1ccccc1 [Compound 159]		3 to 10 (≈ 8.81 to 29.4 µM)	20 to 50 (≈ 58.8 to 147 µM)	
CCCc1[nH]c(-c2ccc(-c3cccc4[nH]ccc34)o2)nc1C [Compound 108]	2 (MIC100 of 6-10 μg/ml)			Antibacterial activity Staphylococcus aureus (MRSA) [2]: 2 (MIC100 of 11-201 μg/ml)
Fc1ccc(-c2ccc(-c3nc4ccccc4[nH]3)o2)cc1 [Compound 121]	inactive			
Cc1nc(-c2ccc(-c3ccc(O)c(C(F)(F)F)c3)o2)[nH]c1-c1ccccc1 [Compound 155]		3 to 10 (≈ 7.81 to 26 µM)	11 to 201 (≈ 28.6 to 523 µM)	
Cc1nc(-c2ccc(-c3cc4ccccc4[nH]3)o2)[nH]c1-c1ccccc1 [Compound 160]		3 to 10 (≈ 8.84 to 29.5 µM)	11 to 201 (≈ 32.4 to 592 µM)	
Cc1[nH]c(-c2csc(-c3ccc(F)cc3)n2)nc1-c1ccccc1 [Compound 11]	3 (MIC100 of 2-5 μg/ml)			
Fc1ccc(-c2ccc(-c3nc4ccccc4[nH]3)o2)c(F)c1 [Compound 122]	inactive			
Cc1nc(-c2ccc(-c3ccc(O)cc3C(F)(F)F)o2)[nH]c1-c1ccccc1 [Compound 139]		1 to 3 (≈ 2.6 to 7.81 µM)	1 to 3 (≈ 2.6 to 7.81 µM)	
Cc1[nH]c(-c2ccc(-c3ccccc3OC(F)(F)F)o2)nc1-c1ccc(O)cc1 [Compound 76]	3 (MIC100 of 2-5 μg/ml)			Antibacterial activity Staphylococcus aureus (MSSA) [3]: 3 (MIC100 of 3-10 μg/ml)
Cc1nc(-c2ccc(-c3ccccc3OC(F)(F)F)o2)[nH]c1C [Compound 85]			1 to 3 (≈ 3.1 to 9.31 µM)	

Structure (SMILES)	Antibacterial activity Streptococcus pneumoniae [1]	MIC [3] [µg/mL]	MIC [2] [µg/mL]	further results
CCCc1[nH]c(-c2ccc(-c3ccccc3[N+](=O)[O-])o2)nc1C [Compound 97]	2 (MIC100 of 6-10 μg/ml)			Antibacterial activity Staphylococcus aureus (MRSA) [2]: 2 (MIC100 of 11-201 μg/ml)
CCCc1[nH]c(-c2ccc(-c3cc(F)ccc3C(F)(F)F)o2)nc1C [Compound 111]	3 (MIC100 of 2-5 μg/ml)			
Cc1[nH]c(-c2ccc(-c3ccccc3F)o2)nc1-c1ccccc1 [Compound 162]		3 to 10 (≈ 9.42 to 31.4 µM)	3 to 10 (≈ 9.42 to 31.4 µM)	
Cc1nc(-c2ccc(-c3ccc(O)cc3)o2)[nH]c1-c1ccccc1 [Compound 150]		11 to 201 (≈ 34.8 to 635 µM)	11 to 201 (≈ 34.8 to 635 µM)	
Cc1ccc(-c2ncc(-c3nc(-c4ccccc4)c(C)[nH]3)s2)cc1 [Compound 55]	3 (MIC100 of 2-5 μg/ml)			
CCCc1nc(-c2sc(-c3ccccc3C(F)(F)F)c3c2OCCO3)[nH]c1C [Compound 114]				Antibacterial activity Staphylococcus aureus (MRSA) [2]: 3 (MIC100 of 3-10 μg/ml)
Cc1[nH]c(-c2ccc(-c3cccc(Br)c3)s2)nc1-c1ccccc1 [Compound 13]	2 (MIC100 of 6-10 μg/ml)			
CCCCc1nc(-c2ccc(-c3ccccc3C(F)(F)F)o2)[nH]c1C [Compound 90]	3 (MIC100 of 2-5 μg/ml)			
Cc1cc(F)ccc1-c1ccc(-c2nc(-c3ccccc3)c(C)[nH]2)o1 [Compound 164]		3 to 10 (≈ 9.03 to 30.1 µM)		
Cc1nc(-c2ccc(-c3ccc(O)cc3F)o2)[nH]c1-c1ccc(O)cc1 [Compound 120]	3 (MIC100 of 2-5 μg/ml)			Antibacterial activity Staphylococcus aureus (MSSA) [3]: 2 (MIC100 of 11-201 μg/ml)
Cc1nc(-c2ccc(-c3cccc4[nH]ccc34)o2)[nH]c1-c1ccccc1 [Compound 138]			11 to 201 (≈ 32.4 to 592 µM)	
Cc1nc(-c2ccc(-c3ccc(F)c(F)c3)o2)[nH]c1-c1ccccc1 [Compound 153]		3 to 10 (≈ 8.92 to 29.7 µM)	3 to 10 (≈ 8.92 to 29.7 µM)	
Cc1[nH]c(-c2ccc(-c3cccc(F)c3)s2)nc1-c1ccccc1 [Compound 117]		20 to 50 (≈ 59.8 to 150 µM)		
Cc1nc(-c2ccc(-c3ccc4cc[nH]c4c3)o2)[nH]c1-c1ccccc1 [Compound 152]		3 to 10 (≈ 8.84 to 29.5 µM)	3 to 10 (≈ 8.84 to 29.5 µM)	
Cc1nc(-c2ccc(-c3cccc(F)c3)o2)[nH]c1-c1ccccc1 [Compound 146]		3 to 10 (≈ 9.42 to 31.4 µM)	3 to 10 (≈ 9.42 to 31.4 µM)	
Cc1nc(-c2ccc(-c3ccc(O)cc3F)o2)[nH]c1-c1ccccc1 [Compound 168]		3 to 10 (≈ 8.97 to 29.9 µM)	3 to 10 (≈ 8.97 to 29.9 µM)	
